Experimental data taken from the supplement of paper PMC10307832.

Legend:
Experiment in all cases: relative viability (nuclei count vs DMSO), 5 days (fraction); higher = more cells survive
CAP-232 + Vorinostat = compound: C[C@H]([C@@H](C(=O)N)NC(=O)[C@@H]1CSSC[C@@H](C(=O)N[C@H](C(=O)N[C@@H](C(=O)N[C@H](C(=O)N1)CCCCN)CC2=CNC3=CC=CC=C32)CC4=CC=C(C=C4)O)NC(=O)[C@@H](CC5=CC=CC=C5)N)O [CAP-232] + O=C(CCCCCCC(=O)Nc1ccccc1)NO [Vorinostat] (partner 1 µM)
Outline: (§1)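 Lung cancer cell lines in 1536-well plates were dosed by pin tool the day after seeding, either with one drug alone or with a fixed anchor-drug dose plus five library-drug doses (not always all listed) in √10 steps. After 5 days, cells were fixed and their nuclei stained in one step (final 0.05% Triton X-100, 1% formaldehyde, 1 ug/ml Hoechst), then counted on 4× images. Relative viability is the nuclei count in treated wells divided by that in vehicle wells. Values are medians of duplicate plates.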

CAP-232 + Olaparib = compound: C[C@H]([C@@H](C(=O)N)NC(=O)[C@@H]1CSSC[C@@H](C(=O)N[C@H](C(=O)N[C@@H](C(=O)N[C@H](C(=O)N1)CCCCN)CC2=CNC3=CC=CC=C32)CC4=CC=C(C=C4)O)NC(=O)[C@@H](CC5=CC=CC=C5)N)O [CAP-232] + O=C(c1cc(Cc2n[nH]c(=O)c3ccccc23)ccc1F)N1CCN(C(=O)C2CC2)CC1 [Olaparib] (partner 8 µM)
Outline: as §1

CAP-232 + Pemetrexed = compound: C[C@H]([C@@H](C(=O)N)NC(=O)[C@@H]1CSSC[C@@H](C(=O)N[C@H](C(=O)N[C@@H](C(=O)N[C@H](C(=O)N1)CCCCN)CC2=CNC3=CC=CC=C32)CC4=CC=C(C=C4)O)NC(=O)[C@@H](CC5=CC=CC=C5)N)O [CAP-232] + Nc1nc2[nH]cc(CCc3ccc(C(=O)N[C@@H](CCC(=O)O)C(=O)O)cc3)c2c(=O)[nH]1 [Pemetrexed] (partner 0.2 µM)
Outline: as §1

CAP-232 + Decitabine = compound: C[C@H]([C@@H](C(=O)N)NC(=O)[C@@H]1CSSC[C@@H](C(=O)N[C@H](C(=O)N[C@@H](C(=O)N[C@H](C(=O)N1)CCCCN)CC2=CNC3=CC=CC=C32)CC4=CC=C(C=C4)O)NC(=O)[C@@H](CC5=CC=CC=C5)N)O [CAP-232] + Nc1ncn([C@H]2C[C@H](O)[C@@H](CO)O2)c(=O)n1 [Decitabine] (partner 2 µM)
Outline: as §1

CAP-232 + Alpelisib = compound: C[C@H]([C@@H](C(=O)N)NC(=O)[C@@H]1CSSC[C@@H](C(=O)N[C@H](C(=O)N[C@@H](C(=O)N[C@H](C(=O)N1)CCCCN)CC2=CNC3=CC=CC=C32)CC4=CC=C(C=C4)O)NC(=O)[C@@H](CC5=CC=CC=C5)N)O [CAP-232] + Cc1nc(NC(=O)N2CCC[C@H]2C(N)=O)sc1-c1ccnc(C(C)(C)C(F)(F)F)c1 [Alpelisib] (partner 2 µM)
Outline: as §1

| Cell Line | relative viability (CAP-232 + Vorinostat; first compound 0.4 µM) | relative viability (CAP-232 + Vorinostat; first compound 1.265 µM) | relative viability (CAP-232 + Vorinostat; first compound 4 µM) | relative viability (CAP-232 + Vorinostat; first compound 12.65 µM) | relative viability (CAP-232 + Olaparib; first compound 0.4 µM) | relative viability (CAP-232 + Olaparib; first compound 1.265 µM) | relative viability (CAP-232 + Olaparib; first compound 4 µM) | relative viability (CAP-232 + Olaparib; first compound 12.65 µM) | relative viability (CAP-232 + Pemetrexed; first compound 0.4 µM) | relative viability (CAP-232 + Pemetrexed; first compound 1.265 µM) | relative viability (CAP-232 + Pemetrexed; first compound 4 µM) | relative viability (CAP-232 + Pemetrexed; first compound 12.65 µM) | relative viability (CAP-232 + Decitabine; first compound 0.4 µM) | relative viability (CAP-232 + Decitabine; first compound 1.265 µM) | relative viability (CAP-232 + Decitabine; first compound 4 µM) | relative viability (CAP-232 + Decitabine; first compound 12.65 µM) | relative viability (CAP-232 + Alpelisib; first compound 0.4 µM) | relative viability (CAP-232 + Alpelisib; first compound 1.265 µM) | relative viability (CAP-232 + Alpelisib; first compound 4 µM) | relative viability (CAP-232 + Alpelisib; first compound 12.65 µM) |
| --- | --- | --- | --- | --- | --- | --- | --- | --- | --- | --- | --- | --- | --- | --- | --- | --- | --- | --- | --- | --- |
| NCI-H650 | 0.505 | 0.423 | 0.364 | 0.457 | 0.434 | 0.427 | 0.341 | 0.361 | 0.869 | 0.786 | 0.799 | 0.932 | 0.342 | 0.278 | 0.278 | 0.156 | 0.997 | 1.3 | 0.997 | 0.825 |
| NCI-H2347 | 0.63 | 0.613 | 0.585 | 0.487 | 0.651 | 0.528 | 0.606 | 0.598 | 0.432 | 0.436 | 0.457 | 0.418 | 0.648 | 0.589 | 0.555 | 0.544 | 0.966 | 0.993 | 0.986 | 0.995 |
| LXF-289 | 0.89 | 0.785 | 0.772 | 0.774 | 1.09 | 1.07 | 1.12 | 1.08 | 1.05 | 0.839 | 0.904 | 0.958 | 0.331 | 0.36 | 0.391 | 0.343 | 1.13 | 1.08 | 1.1 | 1.02 |
| BEN | 0.547 | 0.57 | 0.565 | 0.479 | 1.02 | 1.04 | 0.959 | 1.07 | 0.888 | 0.613 | 0.923 | 0.752 | 0.792 | 0.686 | 0.742 | 0.795 | 1.03 | 1.01 | 1.06 | 0.858 |
| NCI-H2023 | 0.599 | 0.426 | 0.645 | 0.251 | 0.485 | 0.498 | 0.497 | 0.326 | 0.246 | 0.257 | 0.178 | 0.0965 | 0.242 | 0.2 | 0.239 | 0.153 | 0.711 | 0.592 | 0.637 | 0.237 |
| NCI-H661 | 0.848 | 0.848 | 0.875 | 0.752 | 0.768 | 0.771 | 0.8 | 0.683 | 0.885 | 0.872 | 0.98 | 0.827 | 0.546 | 0.543 | 0.583 | 0.446 | 0.594 | 0.382 | 0.913 | 0.596 |
| NCI-H1355 | 0.612 | 0.624 | 0.74 | 0.611 | 0.737 | 0.747 | 0.769 | 0.703 | 1.03 | 0.946 | 1.19 | 1 | 0.339 | 0.33 | 0.391 | 0.338 | 0.845 | 0.842 | 0.963 | 0.864 |
